Data taken from a melting point compilation (Tetko et al.; mined from patent text by program, amines drawn as free bases though some values may be those of a salt).

melting point	SMILES
83 °C	OCC1OC(n2cnc3c(Nc4ccccc4)ncnc32)CC1F (configuration not stated)
152 to 153 °C	C[C@@H](O)[C@H](NC(=O)c1ccc(F)c(Br)c1)C(=O)NO
216 to 217 °C	Cc1sc(C(=O)OCc2ccc3c(c2)OCO3)cc1NC(=O)NCc1ccccc1
182 to 185 °C	O=C1N(c2ccc(Cl)cc2)c2ncccc2C1(Cc1ccccc1)Cc1ccncc1 (configuration not stated)
124 to 125 °C	CN(N)C1=NOCc2ccc(Cl)cc21
98 to 104 °C	COc1ccc(CN2CCN(CCC(c3ccccc3)c3ccccc3)CC2)cc1OC
104 to 107 °C	CON=C(C#N)c1ccc(Cl)c(CNC(=O)OC)c1
163 to 165 °C	O=[N+]([O-])c1cc(C(F)(F)F)cc2sc(=S)sc12
55 to 56 °C	CCCCCCCCCCCCCCCCOCCSCCOC(=O)NCc1ccccn1
150 to 152 °C	O=C(NCCCCc1cccnc1)c1ccc(-c2cccc(O)c2)cc1
173 to 175 °C	O=C(Nc1ccccc1)c1ccc(F)c(NC(=S)Nc2cc(Cl)cc(Cl)c2)c1
191 °C	CCOC(=O)c1c(N[C@H]2CC[C@@H](c3ccccc3)CC2)ccnc1C
110 to 112 °C	CC(=O)c1cccn1[C@@H](Cc1ccc(OCCc2nc(-c3ccccc3)oc2C)cc1)C(=O)O
131 to 134 °C	CCSc1nc2nsc(N)c2s1
143 to 144 °C	CC(C)(C)OC(=O)NC(NC(=O)OC(C)(C)C)Nc1ccc(CCc2csc(NC(=O)c3ccccc3)n2)cc1
167 to 168 °C	c1ccc(C(c2ccccc2)N2CC(n3ccnn3)C2)cc1
130 to 132 °C	CC(=O)c1ccc2c(c1O)CC(O)CO2 (configuration not stated)
153 to 154 °C	CC(C)c1cccc(COCCO)c1NC(=O)CC1c2ccccc2Oc2ccccc21
38 to 39 °C	C#Cc1ccc([Si](OC)(OC)OC)cc1
135 to 137 °C	O=Cc1cc(-c2ccccc2)nn1Cc1ccc(Cl)cc1Cl
314 to 318 °C	COc1ccc(-c2nnc3c4ccccc4c(Nc4cccc(C(=O)Nc5ccc(N(C)C)cc5)c4)nn23)cc1
91 to 92 °C	C=CCOc1cc(C=CNC(=O)OC)ccc1OCC(O)CNC(C)C (configuration not stated)
105 to 107 °C	CSc1cc(-n2ncc(-c3ccc(S(C)(=O)=O)cc3)c(-c3ccc(F)cc3)c2=O)ccc1F
60 to 61 °C	O=C(O)CCCc1ccc(-c2ccccc2Cl)cc1
187 to 190 °C	NS(=O)(=O)Cc1nc(-c2ccc(Cl)c(Cl)c2)cs1

melting point	SMILES
227 to 228 °C	Cc1ccc(C2=Cc3cc(C)c(C)cc3C2)cc1
204 °C	NC(=O)N/N=C(/C(=O)O)c1ccc(OCCOc2ccc3ccccc3c2)cc1
163 to 164 °C	CNS(=O)(=O)c1ccccc1Nc1nc(Nc2ccc3c(c2)COCCN3C)ncc1Cl
225 to 226 °C	CC(C)n1nc(-c2sc(C(=O)NC3CCCCC3)nc2-c2ccccc2)ccc1=O
70 to 71 °C	N#CSc1nccnc1Cl
90 to 92 °C	CCCCN(CCCC)CCCOc1ccc(S(=O)(=O)c2c(C(C)(C)C)cn3ccccc23)cc1
137 to 139 °C	Nc1cc(O)ccc1F
121 to 122 °C	OC(COc1ccc(-c2ccc(Br)cc2)cc1)CN1CCCC1 (configuration not stated)
91 to 92.5 °C	Nc1cc(-c2ccccc2)ccc1Cl
120 to 122 °C	Cc1ccc(NS(=O)(=O)c2ccccc2)cc1NC(=O)Cc1ccc(C#N)cc1
148 °C	CN(C)CCCC(=O)OC[C@@H]1CC(c2ccc(-c3ccc(N4C[C@H](Cn5ccnn5)OC4=O)cc3F)cn2)=NO1
75 to 77 °C	CCOC(=O)c1cnoc1-c1cccc(Cl)c1
189 to 190 °C	O=C(O)C1CCC(c2ccc(Cl)cc2)n2c(=O)n(CCS)c(=O)n21 (configuration not stated)
168 to 170 °C	O=C(CCCN1CCCCC1)c1ccc2c(c1)C(=O)c1cc(C(=O)CCCN3CCCCC3)ccc1-2
212 °C	N#CCOc1cc2c(cc1C#Cc1ccccc1)NC(=O)CC(c1cccc(C#N)c1)=N2
80 to 82 °C	C#CC12CC3CC(CC(C3)C1)C2
50 to 55 °C	OCCC1(c2ccccn2)CCNC1 (configuration not stated)
162 to 164 °C	Cc1cc2cc(O)ccc2c(Oc2ccc(/C=C/C(=O)O)cc2)c1-c1ccc(O)cc1
83 to 86 °C	N#Cc1ccc(Oc2ccc(S(=O)(=O)NCc3ccc4ccccc4n3)cc2)c(Cl)c1
192 to 194 °C	NC(=O)CNC(=O)c1cc(F)cc(-c2ccc(F)c3cc(Cc4cc(F)cc(Cl)c4)sc23)c1
148 to 152 °C	Cc1cc(Nc2cc(-c3c(C)cccc3C)nc(Sc3ccc4ccccc4c3)n2)[nH]n1
209 to 211 °C	CCc1c(-c2ccc(OC)cc2)c2c(C(=O)O)c(C(=O)O)c3cc(OC)cc1n32
82 to 84 °C	CCOC(=O)Cc1ccc2c(c1)sc1cccc(Cl)c12
143 to 145 °C	COC(=O)c1cn(C2CC2)c2c(OC)c(N3CCC(CN)(CF)C3)c(F)cc2c1=O (configuration not stated)
165 °C	O=c1ncc(Cl)cn1CSc1ccc([N+](=O)[O-])cc1

melting point	SMILES
102 to 104 °C	NC(=S)C(CN1CCOCC1)c1ccccn1 (configuration not stated)
216 to 220 °C	COc1cccc(Cn2c(=O)[nH]c3cc(Cl)cc(Cl)c3c2=O)c1
232 to 234 °C	CC(=O)N1C(C)(C)CC(NC(=O)c2ccc(Cl)c(N)c2)CC1(C)C
155 to 156 °C	CC(O)c1ccc(CCOc2ccc(CC3SC(=O)NC3=O)cc2)nc1 (configuration not stated)
210 to 211 °C	CCOC(=O)/C=C/c1cc(-n2cnnn2)cc(C)c1N
97 to 98 °C	Cc1c(C#N)ncn1-c1cccc(Oc2ccccc2)c1
230 to 232 °C	CCc1c(C(=O)O)sc2[nH]c(=O)c(=O)[nH]c12
190 to 192 °C	COc1ccc(C(=O)Nc2ccc(-c3ccc4c(c3)OCO4)cc2)cc1CCCN(C)C
76 to 78 °C	COc1ccc2cc(C(C)C(=O)OC/C=C\COC(=O)OC(C)O[N+](=O)[O-])ccc2c1 (configuration not stated)
248 to 249 °C	O=C(O)c1cc(=O)cc(-c2cccc3ccccc23)o1
108 to 110 °C	O=C(O)CCC(=O)c1ccc(F)c(Br)c1
91 to 93 °C	CC(C)NCCCCOc1ccc(O)cc1
113 to 118 °C	Cc1cc(NCc2ccc(Oc3ccc4ncc([N+](=O)[O-])n4n3)c(OCC3CC3)c2)nc(C)n1
218 to 220 °C	COc1cccc2c(Nc3ccccc3C)nc(Cl)nc12
54 °C	Cc1ccc(CC(=O)O)s1
211 to 215 °C	Cc1nn(-c2cncnc2)cc1N
83 to 85 °C	CCCCCCCCCCCCCCCCN(C(=O)c1ccc(Cl)c([N+](=O)[O-])c1)c1ccccc1[N+](=O)[O-]
150 to 152 °C	Fc1ccc2c(CN3CC=C(CCc4ccccc4)CC3)c[nH]c2c1
214 to 216 °C	O=C(Nc1cccc2c(=O)cc(-c3nnn[nH]3)oc12)c1ccc2c(c1)CCC(COCc1ccccc1)O2 (configuration not stated)
235 to 237 °C	C=C(Br)c1cc(O)cc2nc(-c3ccc(O)cc3F)oc12
184 to 185 °C	COc1ccc(C(=Cc2cc3c(cc2[N+](=O)[O-])OCO3)C(=O)O)cc1
236 to 238 °C	N#Cc1ccc(-c2ccc(Cl)nn2)cc1
120 to 121 °C	Oc1ccc2c(c1CNc1ccc(F)cc1F)CCCO2
165 to 167 °C	O=C(O)COc1ccc2c(c1)-c1nc(SCC(c3ccccc3)c3ccccc3)sc1CC2
200 to 205 °C	CC(=O)N1c2c(ccc3c2nc(C)n3C)[C@@H]2O[C@@H]2[C@H]1c1ccccc1

melting point	SMILES
262 °C	CN1CCC(=C2c3c(ccn3C)C=Cn3cnnc32)CC1
181 to 183 °C	CCC1c2cccn2-c2ccc(C(F)(F)F)cc2N1S(=O)(=O)c1ccc(O)cc1 (configuration not stated)
98 to 109 °C	c1ccc(-c2coc3c2ccc2ccccc23)cc1
62.5 to 65 °C	COC(=O)C(Sc1ccccc1)c1ccc(I)cc1 (configuration not stated)
120 to 123 °C	Cc1cc(C)cc(-c2nc(N)sc2-c2ccnc(NC(=O)c3ccccc3)c2)c1
207 to 209 °C	Nc1ccc(OCC2CCN(c3ccncc3)CC2)cc1
42 °C	CC1(C)SC(=O)C2OC=CC=C21 (configuration not stated)
135 to 137 °C	O=C1Cc2c(Cl)cccc2Sc2ccc(F)cc21
220 to 223 °C	Cc1cc(C)c2[nH]c(C(=O)NC(N)=S)cc2c1
176 to 177 °C	CCCN(Cc1ccc(-c2ccccc2-c2nc(=O)o[nH]2)cc1)c1nc(C)ncc1C(=O)OCC
254 to 255 °C	COc1ccc2oc3cc(C#N)ccc3c(=O)c2c1
89 to 89.5 °C	CCN(CC)C(=O)COC(=O)C(C)c1ccc2cc(OC)ccc2c1 (configuration not stated)
204 to 205 °C	O=C(NC1CCCOC1)c1ccc2nonc2c1 (configuration not stated)
168 to 171 °C	Cn1c(-c2ccc(-c3cccnc3)cc2)cnc1[C@H](Cc1ccccn1)N(C=O)c1cc2cc(Br)ccc2o1
137 to 140 °C	COc1ccc(-c2cc(S(C)(=O)=O)nnc2-c2ccc(OC)cc2)cc1
68 °C	CCC1(CCO)OCCc2c1[nH]c1c(C)cccc21 (configuration not stated)
115 to 118 °C	C[C@H](O)[C@H]1C(=O)N2C(C(=O)OCc3ccc([N+](=O)[O-])cc3)=C(SCCNC(=O)COc3ccccc3)C[C@H]12
200 to 203 °C	Cc1c(CCc2ccc3nc(N)sc3c2)ncn1C(c1ccccc1)(c1ccccc1)c1ccccc1
134 to 136 °C	CCCCOc1cc(CCC(=O)O)ccc1-c1cccc(N(C)C(=O)Nc2ccccc2)c1
186 to 188 °C	CCOCc1nc2c(N)nc3cc(OCc4ccc(C(F)(F)F)o4)ccc3c2n1CC(C)(C)NS(C)(=O)=O
160 °C	COc1ccc(CN(C)CCCOc2ccc(NC(=O)c3cccc4c(=O)c5cccc(C)c5[nH]c34)cc2)cc1OC
88 to 89 °C	CCO/C(=C\c1ccsc1)C(=O)O
143 °C	N=c1sc2cc(OC(F)(F)F)ccc2n1CCSc1ccncc1

SMILES	melting point
CS(=O)(=O)Nc1ccc(C#CCCN2CC=C(c3ccccc3)CC2)nc1	138 to 139 °C
Fc1ccc2c(C3=CCN(CCC4OCCc5cc(Br)ccc54)CC3)c[nH]c2c1 (configuration not stated)	184 to 186 °C
CNC(=N[N+](=O)[O-])NCc1cnc(Br)s1	170 °C
CCOC(=O)C=Cc1cc(-c2ccc3c(c2)C(C)(C)CCC3(C)C)cs1	82 to 84 °C
